Data reported in patent US20050118224A1, “Edible pesticidal formulations” (priority 2001, published 2005).

Assay: Chlorpyrifos loss from liquid blends with oleophilic phase candidates, 70° C. for 70 h
Format: physicochemical
Conditions: 1.2 g chlorpyrifos in 9 g candidate, on aluminium foil
Description: 1.2 g of chlorpyrifos was added to 9 g of each alternative oleophilic candidate (see Table 14). 1.02 g of this liquid blend was then placed onto aluminium foil within a glass Petrie dish. The control was molten chlorpyrifos alone. Samples were then placed in a fan forced oven at 70° C. for 70 h before being removed and analysed for chlorpyrifos content.

## CCOP(=S)(OCC)Oc1nc(Cl)c(Cl)cc1Cl [No oleophilic phase, chlorpyrifos]
  Chlorpyrifos loss (%): 37%
